This is an account of results in patent publication US11944603B2, “Use of compound or medicinal derivative thereof in inhibiting AIM2 protein activity” (priority 2022, dated 2024).

The structures appear in SMILES notation.

Assay [1] relates to AIM2 pathway in HaCaT cells. The assay can be described thus: HaCaT cell model, real-time fluorescence PCR of IL-1β and AIM2 pathway genes. It is filed as cell-based. The following applies: 25 uM. How it is done:
(§1) (1) A positive control (PC), a negative control (NC) and respective treatment groups are set. An inclusion of Lip3000 (Lipofectamine™ 3000 Transfection Reagent) and OligodA-T (OligodA-T:Lip3000:P3000=1:1:25, a concentration of OligodA-T is 1 ug/mL) is used to transfect HaCat cells, and only the same amount of transfection reagent (Lip3000:P3000=1:1) is added in NC group. The HaCat cells are co-transfected with an inclusion of Lip3000-OligodA-T at gradient doses (0.1 uM, 1 uM, 5 uM, 10 uM and 25 uM) of SLD-1 in the respective treatment groups.
(2) The positive control (PC), negative control (NC) and the respective treatment groups are incubated in a cell incubator containing 5% CO2 at 37° C. for 24 hours, and the cells are collected for real-time fluorescence PCR detection to observe the effect of different doses of inhibitors on the activation of AIM2 pathway in the HaCaT cells.
(4) In addition, the effect of 25 uM of SLD-1 on the transcription level of genes in the AIM2 pathway of the HaCat cell model is detected, and results are shown in FIG. 11.

The test system of assay [2] is T lymphocytes of TCRγ/CD3+ RORγt in mouse skin. The assay can be described thus: IMQ psoriasis mouse model: flow cytometry of skin lymphocytes. The format is in vivo, C57/BL6 mice. The following applies: 2.5 mg/kg, compared with IMQ mice without SLD-1. How it is done:
(§2) Dimethyl sulfoxide (DMSO) is used to dissolve SLD-1 powder, the powder is weighed according to different dosage, then diluted with β-cyclodextrin, and a final concentration of DMSO shall not exceed 5%. The dose gradients of SLD-1 set are 0 mg/kg, 2.5 mg/kg, 5 mg/kg and 10 mg/kg respectively. Each mouse is calculated as 20 grams (g), and 0 mg, 0.05 mg, 0.1 mg and 0.2 mg of SLD-1 are administered respective mice every day.
(§3) Seven-week-old C57/BL6 mice are selected, fed and modeled in a […] (SPF) environment. The experimental groups are as follows: • (1) mouse skin smeared with IMQ and 0 mg/kg of SLD-1; • (2) mouse skin smeared with IMQ and 2.5mg/kg of SLD-1; • (3) mouse skin smeared with IMQ and 5 mg/kg of SLD-1; • (4) mouse skin smeared with IMQ and 10 mg/kg of SLD-1; • (5) mouse skin smeared with Vaseline and 0 mg/kg of SLD-1; • (6) mouse skin smeared with Vaseline and 2.5mg/kg of SLD-1; • (7) mouse skin smeared with Vaseline and 5 mg/kg of SLD-1; and • (8) mouse skin smeared with Vaseline and 10 mg/kg of SLD-1.
Six mice in each group are shaved back hair to make a exposed skin reach 4 square centimeters. A start date of the experiment is set as day 0 and an end date is set as day 6. […] The mouse skins are scored every day, the mice are sacrificed on day 6, and skin tissue is taken for a series of tests. […]

Assay [3] has as its target T1, human AIM2 protein (Homo sapiens, UniProt O14862).
T1 construct: a human full-length AIM2 protein is expressed and purified firstly by pET28a vector; made in house
T1 sequence (O14862 1-343): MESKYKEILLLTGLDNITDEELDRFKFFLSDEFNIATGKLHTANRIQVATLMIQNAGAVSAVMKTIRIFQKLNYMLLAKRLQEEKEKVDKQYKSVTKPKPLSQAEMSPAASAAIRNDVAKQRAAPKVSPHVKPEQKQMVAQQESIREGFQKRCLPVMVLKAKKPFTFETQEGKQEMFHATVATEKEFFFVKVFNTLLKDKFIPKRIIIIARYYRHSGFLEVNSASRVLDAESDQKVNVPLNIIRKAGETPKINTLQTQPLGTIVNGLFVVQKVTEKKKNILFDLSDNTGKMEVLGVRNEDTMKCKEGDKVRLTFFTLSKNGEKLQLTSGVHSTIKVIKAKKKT
As to the kind of experiment: Affinity by surface-plasmon resonance (Biacore), amino coupling. Particulars: human full-length AIM2 protein, SPR; read-out: binding constant. How it is done:
In the embodiment of the disclosure, the affinity between SLD-1 and human AIM2 protein is detected. Specifically, a human full-length AIM2 protein is expressed and purified firstly by pET28a vector, and then the affinity is determined by CMS chip amino-coupling method through a surface-plasmon resonance (SPR) method of Biacore.

Assay [4] relates to HaCaT cells. As to the kind of experiment: HaCaT cell model, cell state under microscope (pyroptosis). Particulars: 25 uM, microscope 100 times and 400 times. It is filed as cell-based. On the procedure:
as §1
(3) In this situation, a cell state of 25 uM gradient is observed under microscope fields of 100 times and 400 times, and results are shown in FIG. 10.

Assay [5] deals with T2, mouse AIM2 protein (Mus musculus, UniProt Q91VJ1).
T2 construct: a mouse full-length AIM2 protein is expressed and purified firstly by pET28a vector; made in house
T2 sequence (Q91VJ1 1-354): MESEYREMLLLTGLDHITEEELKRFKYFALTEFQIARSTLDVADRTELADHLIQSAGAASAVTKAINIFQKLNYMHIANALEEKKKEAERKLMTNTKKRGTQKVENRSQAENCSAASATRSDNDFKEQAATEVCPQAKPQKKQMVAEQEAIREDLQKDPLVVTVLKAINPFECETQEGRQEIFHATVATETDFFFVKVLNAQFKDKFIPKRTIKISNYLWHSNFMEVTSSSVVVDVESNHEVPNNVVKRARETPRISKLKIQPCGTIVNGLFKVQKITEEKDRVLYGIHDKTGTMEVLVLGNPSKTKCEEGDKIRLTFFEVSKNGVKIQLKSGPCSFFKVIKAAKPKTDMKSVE
As to the kind of experiment: Affinity by surface plasmon resonance (Biacore), amino coupling. The following applies: mouse full-length AIM2 protein, SPR; read-out: binding constant. How it is done:
In the embodiment of the disclosure, the affinity between SLD-1 and mouse AIM2 protein is detected. Specifically, a mouse full-length AIM2 protein is expressed and purified firstly by pET28a vector, and then the affinity is determined by CMS chip amino coupling method by a surface plasmon resonance (SPR) method of Biacore.

In assay [6] the test system is IMQ mice. The assay can be described thus: IMQ psoriasis mouse model: PASI scores, skin phenotype, skin pathology. It is filed as in vivo, C57/BL6 mice. How it is done:
as §2, §3
(§4) Six mice in each group are shaved back hair to make a exposed skin reach 4 square centimeters. A start date of the experiment is set as day 0 and an end date is set as day 6. From day 0 to Day 5, 100 μL medicine solution is taken every day and evenly smeared mouse skin to absorb. From day 2 to day 5, each mouse 62.5 mg IMQ is smeared every day after 20 minutes of SLD-1 inhibitor. The mouse skins are scored every day, the mice are sacrificed on day 6, and skin tissue is taken for a series of tests.
PASI scores, skin phenotypes and skin pathological phenotypes of the above IMQ modeled mice are shown in FIG. 13, FIG. 14 and FIG. 15 respectively.

Assay [7] has as its system AIM2 downstream protein in HaCaT cells. As to the kind of experiment: HaCaT cell model, expression of AIM2 downstream protein. The format is cell-based. Particulars: 25 uM. How it is done:
as §1
(5) Moreover, the expression of AIM2 downstream protein in the HaCaT cells treated with 25 uM SLD-1 is detected, and results are shown in FIG. 12.

Assay [8] concerns AIM2 pathway in mouse skin. As to the kind of experiment: IMQ psoriasis mouse model: AIM2 pathway gene transcription and protein levels in skin. The format is in vivo, C57/BL6 mice. How it is done: as §2, §3, §4
Assay [9] relates to IL-1β mRNA in HaCaT cells. The assay can be described thus: Screening in HaCaT cell model stimulated by OligodA-T, real-time PCR of IL-1β mRNA. The following applies: 10 uM, 24 hours, OligodA-T 1 ug/mL, among 100 compounds. It is filed as cell-based. On the procedure:
The protective ability of 100 compounds screened above against cell pyroptosis of HaCaT cells stimulated by OligodA-T is evaluated by the real-time fluorescent quantitative polymerase chain reaction (PCR) detection of IL-1β mRNA in the stimulated cells.
1. Positive control (PC) and negative control (NC) are set in the experimental group. An inclusion of Lip3000 (Lipofectamine™ 3000 Transfection Reagent) and OligodA-T (OligodA-T:Lip3000:P3000=1:1:25, a concentration of OligodA-T is 1 microgram per […] (ug/mL)) is used to transfect HaCat cells. Lip3000-OligodA-T and 10 micromoles per liter (uM) small molecule inhibitor are used to transfect the HaCat cells in each treatment group, and only the same amount of transfection reagent (Lip3000:P3000=1:1) is added in NC group.
2. Each experimental group is incubated in a cell incubator containing 5% CO2 for 24 hours at 37° C., and the cells are collected for real-time fluorescence PCR detection.

As for `Cn1c(=O)n(C)c2cc(C(O)COc3ccc(CNC4C5CC6CC(C5)CC4C6)cc3)ccc21` (stereo not drawn) [SLD-1], in assay [1], the “transcription of major genes in the AIM2 pathway compared with the PC” value is “significantly decreased”. Besides, in [1] (of gradient 0.1, 1, 5, 10, 25 uM, 24 hours), the “IL-1β transcription levels compared to the PC” value is “reduced IL-β transcription levels in the HaCat cells the most”. In addition, the “proportion of TCRγ/CD3+ RORγt in skin lymphocytes” value in [2] is on record as “significantly lower”. Further, in assay [3], the Kd amounted to 10.3 µM. Further, in assay [4], the “cell state (pyroptosis, density, adhesion)” value is “close to that of the NC, with very few transparent pyroptosis cells, a high cell density and a good adhesion”. Further, the Kd in assay [5] is 10.3 µM. Besides, in [6] (2.5 mg/kg smeared on skin), the “reduction effect on inflammatory phenotype of IMQ mice” value is reported as “the most significant”. The “reduction effect on inflammatory phenotype of IMQ mice, comparison of doses” value in assay [6] (5 mg/kg and 10 mg/kg smeared on skin) was “no difference between 5 mg/kg and 10 mg/kg”. In addition, the “inflammatory phenotype of IMQ mice (PASI, skin phenotype, pathology)” value in assay [6] (three doses 2.5, 5, 10 mg/kg smeared on skin, day 0 to day 5) was “reduced the inflammatory phenotype of IMQ mice to varying degrees”. Further, in assay [7], the “AIM2 downstream procaspase-1 and proIL-1β expression” value is given as “no effect”; the “content of caspase-1p20 and IL-1βp17” value is “reduces the content of caspase-1p20 and IL-1βp17”. In [8] (2.5 mg/kg), the “AIM2 downstream procaspase-1 and proil-1β in the mouse skin” value is recorded as “no effect”; the “content of caspase-1p20 and IL-1βp17 in the mouse skin” value was “decreases the content of caspase-1p20 and IL-1βp17”. Besides, the “transcription levels of AIM2 pathway genes in the mouse skin” value in assay [8] (respective groups) is given as “no significant difference”. In assay [9], the “inhibitory effect on IL-1β mRNA compared with the positive control” value is reported as “most significant inhibitory effect (p<0.0001)”.
